Experimental data published in patent US5719278A, “Tricyclic benzazepine vasopressin antagonists” (American Cyanamid Company, priority 1996, dated 1998).

How the values were obtained:
[1] = target: T1, oxytocin receptors (Rattus norvegicus, UniProt P70536); assay: Oxytocin Receptor Binding; parameters: species or system Sprague-Dawley rat; settings: for IC50: 1.0 nM [^3 H]OT, 60 min., 22° C.
T1 construct: The uteri are dissected out, cleaned of fat and connective tissues; from tissue; host or cells: uterus of DES-treated female Sprague-Dawley rats
T1 sequence (P70536 1-388): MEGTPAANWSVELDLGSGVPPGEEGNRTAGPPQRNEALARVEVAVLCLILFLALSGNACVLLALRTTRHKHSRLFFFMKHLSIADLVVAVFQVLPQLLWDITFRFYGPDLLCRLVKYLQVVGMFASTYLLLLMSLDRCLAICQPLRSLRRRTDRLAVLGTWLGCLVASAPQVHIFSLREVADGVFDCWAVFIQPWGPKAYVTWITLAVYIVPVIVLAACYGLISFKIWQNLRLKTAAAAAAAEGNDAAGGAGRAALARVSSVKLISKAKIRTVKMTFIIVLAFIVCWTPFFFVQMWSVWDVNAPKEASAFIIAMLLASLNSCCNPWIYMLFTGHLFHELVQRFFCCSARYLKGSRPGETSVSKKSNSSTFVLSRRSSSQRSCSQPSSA
Procedure: Oxytocin Receptor Binding
Female Sprague-Dawley rats weighing approximately 200-250 g are injected intramuscularly (i.m.) with 0.3 mg/kg of body weight of diethylstilbestrol (DES). The rats are sacrificed 18 hours later under pentobarbital anesthesia. The uteri are dissected out, cleaned of fat and connective tissues and rinsed in 50 ml of normal saline. The tissue pooled from six rats is homogenized in 50 ml of […] TriS.HCl, containing 0.5 mM dithiothreitol and 1.0 mM EDTA, adjusted to pH 7.4, using a polytron at setting 6 with three passes of 10 sec each. The homogenate is passed through two (2) layers of cheesecloth and the filtrate contrifuged at 1000×g for 10 min. The clear supernatant is removed and recentrifuged at 165,000×g for 30 min. The resulting pellet containing the oxytocin receptors is resuspended in 50.0 mM Tris.HCl containing 5.0 mM MgCl2 at pH 7.4, to give a protein concentration of 2.5 mg/ml of tissue suspension. This preparation is used in subsequent binding assays with [^3 H]Oxytocin.
Binding of 3,5-[^3 H]Oxytocin ([^3 H]OT) to its receptors is done in microtiter plates using [^3 H]OT, at various concentrations, in an assay buffer of 50.0 mM Tris.HCl, pH 7.4 and containing 5.0 mM MgCl2, and a mixture of protease inhibitors: BSA, 0.1 mg; aprotinin, 1.0 mg; 1,10-phenanthroline, 2.0 mg; […], 10.0 mg; and PMSF, 0.3 mg per 100 ml of buffer solution. Non-specific binding is determined in the presence of 1.0 uM unlabeled OT. The binding reaction is terminated after 60 min., at 22° C., by rapid filtration through glass fiber filters using a Brandel® cell harvester (Biomedical Research and Development Laboratories, Inc., Gaithersburg, Md.). Competition experiments are conducted at equilibrium using 1.0 nM [^3 H]OT and varying the concentration of the displacing agents. The concentrations of agent displacing 50% of [^3 H]OT at its sites (IC50) are calculated by a computer assisted LUNDON-2 program (LUNDON SOFTWARE INC., Ohio, U.S.A.).

[2] = target: T2, V1 Receptor Subtype in Human Platelet (Homo sapiens, UniProt P37288); assay: Binding to Vasopressin V1 Receptor Subtype in Human Platelet Membranes; settings: *Binding to V1 Receptor Subtype in Human Platelet
T2 construct: from tissue; host or cells: human platelets (platelet rich plasma from Hudson Valley Blood Services)
Procedure: Radioligand Binding Experiments with Human Platelet Membranes
Platelet Source: Hudson Valley Blood Services, Westchester Medical Center, Valhalla, N.Y.
Frozen platelet rich plasma (PRP), received from the Hudson Valley Blood Services are thawed to room temperature. The tubes containing the PRP are centrifuged at 16,000×g for 10 min. at 4° C. and the supernatant fluid discarded. The platelets resuspended in an equal volume of 50.0 mM Tris.HCl, pH 7.5 containing 120 mM NaCl and 20.0 mM EDTA. The suspension is recentrifuged at 16,000×g for 10 min. This washing step is repeated one more time. The wash is discarded and the lysed pellets homogenized in low ionic strength buffer of Tris.HCl, 5.0 mM, pH 7.5 containing 5.0 mM EDTA. The homogenate is centrifuged at 39,000×g for 10 min. The resulting pellet is resuspended in Tris.HCl buffer, 70.0 mM, pH 7.5 and recentrifuged at 39,000×g for 10 min. The final pellet is resuspended in 50.0 mM Tris.HCl buffer pH 7.4 containing 120 mM NaCl and 5.0 mM HCl to give 1.0-2.0 mg protein per ml of suspension.
Binding to Vasopressin V1 Receptor Subtype in Human Platelet Membranes:
In wells of a 96 well format microtiter plate, add 100 μl of 50.0 mM Tris.HCl buffer containing 0.2% BSA and a mixture of protease inhibitors (aprotinin, leupeptin etc.). Then add 20 μl of [^3 H]Ligand: (Manning or Arg^8 Vasopressin), to give final concentrations ranging from 0.01 to 10.0 nM. Initiate the binding by adding 80.0 μl of platelet suspension (approx. 100 μg protein). Mix all reagents by pipetting the mixture up and down a few times. Non-specific binding is measured in the presence of 1.0 μM of unlabeled ligand (Manning or Arg^8 Vasopressin). Let the mixture stand undisturbed at room temperature for ninety (90) min. Upon this time, rapidly filter off the incubate under vacuum suction over GF/B filters, using a Brandel® Harvester. Determine the radioactivity caught on the filter disks by the addition of liquid scintillant and counting in a liquid scintillator

T2 sequence (P37288 whole entry): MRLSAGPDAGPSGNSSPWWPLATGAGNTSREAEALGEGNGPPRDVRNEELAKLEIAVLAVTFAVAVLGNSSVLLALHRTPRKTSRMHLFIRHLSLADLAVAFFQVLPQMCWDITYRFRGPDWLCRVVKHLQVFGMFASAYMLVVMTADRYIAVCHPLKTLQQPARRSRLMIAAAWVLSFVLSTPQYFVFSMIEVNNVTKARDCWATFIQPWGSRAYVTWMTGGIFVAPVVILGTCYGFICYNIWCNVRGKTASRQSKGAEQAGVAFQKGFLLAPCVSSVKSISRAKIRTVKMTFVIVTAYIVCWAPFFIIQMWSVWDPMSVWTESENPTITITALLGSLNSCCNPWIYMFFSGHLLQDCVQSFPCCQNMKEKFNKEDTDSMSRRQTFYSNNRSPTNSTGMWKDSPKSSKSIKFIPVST

SMILES | IC50 [1] | inhibition at 10 µM [1] | IC50 [2]
O=C(Nc1ccc(C(=O)N2CCc3cn[nH]c3-c3sccc32)cc1)c1ccc(F)cc1Cl [Example 1, N-[4-[(4,5-Dihydropyrazolo[3,4-d]thieno[3,2-b]azepin-6(1H)-yl)carbonyl]phenyl]-2-chloro-4-fluorobenzamide] | 2.5 µM | 93% | 
Cc1ccc(F)cc1C(=O)Nc1ccc(C(=O)N2CCc3c[nH]nc3-c3ncccc32)cc1 [Example 367, N-[4-[4(4,5-Dihydropyrazolo[3,4-d]pyrido[3,2-b]azepin-6(1H)-yl)carbonyl]phenyl]-5-fluoro-2-methylbenzamide] | 2.1 µM | 63% | 0.31 µM
O=C(Nc1ccc(C(=O)N2CCc3cn[nH]c3-c3ncccc32)cc1)c1ccccc1-c1ccccc1 [Example 365, N-[4-[(4,5-Dihydropyrazolo[3,4-d]pyrido[3,2-b]azepin-6(1H)-yl)carbonyl]phenyl][1,1'-biphenyl]-2-carboxamide] | 2.5 µM | 57% | 0.101 µM
